One test addresses T1, αllbβ3 integrin (Homo sapiens, UniProt P05106+P08514).
T1 construct: Human platelet membrane preparations were used as a source of αllbβ3 integrin; from tissue; host or cells: human platelets (membrane preparation)
Put plainly: ELISA: inhibition of binding of αllbβ3 integrin membrane preparation to coated extracellular matrix protein. The settings on record: human platelet membrane preparation. In outline: (§1)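 Wells were coated with fibrinogen or vitronectin (10 µg/well), and integrin binding was measured by ELISA. αIIbβ3 came from human platelet membranes and αVβ3 from WM-115 cells, each preincubated with compound. Bound integrin was detected with a rabbit anti-β3 antibody, an HRP secondary and a colorimetric readout.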

Another test concerns the target T2, αVβ3 integrin (Homo sapiens, UniProt P05106+P06756).
T2 construct: the cell line WM-115 was used as a source of αVβ3 integrin; endogenous in cells; host or cells: WM-115 cell line
The test is described as follows: ELISA: inhibition of binding of αVβ3 integrin (source WM-115 cell line) to coated extracellular matrix protein. The conditions noted are these: WM-115 cell line as integrin source. The method, boiled down: as §1
On the technique in general: In an ELISA, binding on a coated surface is turned into a signal by an enzyme label.

Here are results for three compounds from US20080176936A1, “Classes of Compounds that Interact with Integrins” (priority 2005, published 2008).

T2 sequence (P06756 31-889 limits assumed): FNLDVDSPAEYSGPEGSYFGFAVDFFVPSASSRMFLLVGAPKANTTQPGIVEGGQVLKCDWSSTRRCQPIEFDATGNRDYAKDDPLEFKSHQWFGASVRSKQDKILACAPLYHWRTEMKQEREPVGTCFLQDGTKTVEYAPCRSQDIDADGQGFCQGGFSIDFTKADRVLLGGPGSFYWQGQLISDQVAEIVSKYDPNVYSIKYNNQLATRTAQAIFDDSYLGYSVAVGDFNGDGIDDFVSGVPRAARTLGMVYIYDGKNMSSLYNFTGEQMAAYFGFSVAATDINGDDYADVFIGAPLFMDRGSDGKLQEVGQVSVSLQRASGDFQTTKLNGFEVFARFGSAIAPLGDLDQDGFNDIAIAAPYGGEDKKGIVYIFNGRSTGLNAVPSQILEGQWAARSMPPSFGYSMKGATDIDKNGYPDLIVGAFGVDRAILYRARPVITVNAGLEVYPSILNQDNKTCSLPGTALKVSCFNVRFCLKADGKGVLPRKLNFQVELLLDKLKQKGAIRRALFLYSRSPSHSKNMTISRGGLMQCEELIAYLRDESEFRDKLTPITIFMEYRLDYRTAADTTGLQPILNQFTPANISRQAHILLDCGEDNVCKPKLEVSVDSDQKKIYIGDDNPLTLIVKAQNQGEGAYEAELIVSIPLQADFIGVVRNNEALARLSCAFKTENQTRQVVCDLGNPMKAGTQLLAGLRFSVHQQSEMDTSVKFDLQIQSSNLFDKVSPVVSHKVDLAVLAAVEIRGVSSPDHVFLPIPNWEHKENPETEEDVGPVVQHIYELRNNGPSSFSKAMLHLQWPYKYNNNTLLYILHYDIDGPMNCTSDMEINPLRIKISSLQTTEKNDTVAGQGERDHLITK
T2 sequence (P06756 891-1048 partner limits assumed): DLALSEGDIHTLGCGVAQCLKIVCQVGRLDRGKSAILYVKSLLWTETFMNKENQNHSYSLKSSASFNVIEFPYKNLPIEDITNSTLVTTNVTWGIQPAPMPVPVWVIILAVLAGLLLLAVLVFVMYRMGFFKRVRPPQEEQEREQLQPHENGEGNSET
T2 sequence (P05106 27-788): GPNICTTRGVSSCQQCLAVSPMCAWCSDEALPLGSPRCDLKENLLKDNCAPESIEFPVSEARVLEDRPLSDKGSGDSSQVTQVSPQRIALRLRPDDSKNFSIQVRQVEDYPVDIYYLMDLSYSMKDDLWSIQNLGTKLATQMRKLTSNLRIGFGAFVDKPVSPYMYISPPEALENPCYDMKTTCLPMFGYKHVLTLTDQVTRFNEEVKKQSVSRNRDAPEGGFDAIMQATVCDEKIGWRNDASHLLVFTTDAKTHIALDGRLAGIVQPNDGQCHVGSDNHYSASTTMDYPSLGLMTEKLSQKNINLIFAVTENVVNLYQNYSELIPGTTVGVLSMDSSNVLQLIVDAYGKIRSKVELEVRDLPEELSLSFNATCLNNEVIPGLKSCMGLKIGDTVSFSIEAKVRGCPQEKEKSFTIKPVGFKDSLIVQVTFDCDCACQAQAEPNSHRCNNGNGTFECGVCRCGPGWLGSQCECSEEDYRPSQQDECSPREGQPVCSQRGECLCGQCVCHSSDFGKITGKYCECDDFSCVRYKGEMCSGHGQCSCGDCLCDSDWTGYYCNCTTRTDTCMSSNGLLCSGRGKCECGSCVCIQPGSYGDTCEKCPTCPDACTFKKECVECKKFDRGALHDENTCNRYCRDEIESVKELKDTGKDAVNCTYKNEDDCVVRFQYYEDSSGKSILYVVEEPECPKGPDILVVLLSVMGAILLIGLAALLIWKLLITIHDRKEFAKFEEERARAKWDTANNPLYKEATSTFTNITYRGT
T1 sequence (P08514 32-887 limits assumed): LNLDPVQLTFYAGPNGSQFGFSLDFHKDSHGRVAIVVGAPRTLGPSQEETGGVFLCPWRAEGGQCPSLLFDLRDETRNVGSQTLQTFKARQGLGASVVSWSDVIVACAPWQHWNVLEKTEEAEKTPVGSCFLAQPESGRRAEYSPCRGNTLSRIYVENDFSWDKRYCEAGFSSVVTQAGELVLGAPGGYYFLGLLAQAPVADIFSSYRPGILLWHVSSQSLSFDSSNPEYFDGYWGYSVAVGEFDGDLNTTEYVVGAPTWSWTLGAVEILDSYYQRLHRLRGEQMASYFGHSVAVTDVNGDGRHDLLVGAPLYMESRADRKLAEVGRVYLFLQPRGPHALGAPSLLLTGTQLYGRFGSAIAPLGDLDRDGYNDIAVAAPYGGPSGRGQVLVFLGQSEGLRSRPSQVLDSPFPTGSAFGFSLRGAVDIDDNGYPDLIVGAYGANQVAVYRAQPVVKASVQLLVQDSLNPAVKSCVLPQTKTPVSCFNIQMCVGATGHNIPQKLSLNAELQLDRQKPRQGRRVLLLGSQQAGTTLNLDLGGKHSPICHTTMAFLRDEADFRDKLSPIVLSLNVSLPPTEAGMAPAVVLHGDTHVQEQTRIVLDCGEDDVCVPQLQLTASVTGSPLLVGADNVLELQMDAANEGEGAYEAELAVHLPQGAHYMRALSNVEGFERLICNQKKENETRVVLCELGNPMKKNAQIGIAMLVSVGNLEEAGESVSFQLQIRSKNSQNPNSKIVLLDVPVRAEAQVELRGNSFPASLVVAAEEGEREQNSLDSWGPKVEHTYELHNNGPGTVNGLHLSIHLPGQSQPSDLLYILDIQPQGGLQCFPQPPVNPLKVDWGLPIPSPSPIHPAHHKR
T1 sequence (P08514 891-1039 partner limits assumed): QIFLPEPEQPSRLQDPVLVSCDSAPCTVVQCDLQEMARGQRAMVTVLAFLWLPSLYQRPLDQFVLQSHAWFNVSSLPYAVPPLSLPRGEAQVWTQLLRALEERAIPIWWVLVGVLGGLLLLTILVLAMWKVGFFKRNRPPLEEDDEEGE
T1 sequence (P05106 27-788): as the sequence (P05106 27-788) above

In the case of `COC1OC(COCc2cccc(N)c2)C(O)C(OCc2ccc(Br)cc2)C1NC(=O)c1ccc(C(=O)O)cc1` (single isomer, unassigned) [Compound 3], on αllbβ3 integrin, the “INHIBITION @ 250 uM RECEPTOR allBb3 SUBSTRATE FIBRINOGEN” value is “+ (36% to 60% inhibition at 250 micromolar)” and the “INHIBITION 250 uM RECEPTOR allBb3 SUBSTRATE VITRONECTIN” value is on record as “+++ (81% to 100% inhibition at 250 micromolar)”. Further, at αVβ3 integrin, the “INHIBITION 250 uM RECEPTOR aVb3 SUBSTRATE FIBRINOGEN” value is recorded as “+ (36% to 60% inhibition at 250 micromolar)”.
In the case of `CCOCC1OC(OCc2ccccc2)C(NC(=O)CCNC(=N)N)C(OCC(=O)O)C1O` (single isomer, unassigned) [Compound 92], on αllbβ3 integrin, the “INHIBITION @ 250 uM RECEPTOR allBb3 SUBSTRATE FIBRINOGEN” value is listed as “+ (36% to 60% inhibition at 250 micromolar)” and the “INHIBITION 250 uM RECEPTOR allBb3 SUBSTRATE VITRONECTIN” value is “+++ (81% to 100% inhibition at 250 micromolar)”. At αVβ3 integrin, the “INHIBITION 250 uM RECEPTOR aVb3 SUBSTRATE FIBRINOGEN” value is reported as “++ (61% to 80% inhibition at 250 micromolar)”.
Take `COC1OC(COCc2ccc(C(=O)O)cc2)C(O)C(OCc2cccc(N)c2)C1NC(=O)c1ccc(Cl)cc1` (single isomer, unassigned) [Compound 30]: on αllbβ3 integrin, the “INHIBITION @ 250 uM RECEPTOR allBb3 SUBSTRATE FIBRINOGEN” value is on record as “++ (61% to 80% inhibition at 250 micromolar)” and the “INHIBITION 250 uM RECEPTOR allBb3 SUBSTRATE VITRONECTIN” value was “+++ (81% to 100% inhibition at 250 micromolar)”. For the same compound, the “INHIBITION 250 uM RECEPTOR aVb3 SUBSTRATE FIBRINOGEN” value at αVβ3 integrin is “+++ (81% to 100% inhibition at 250 micromolar)”.
